The values that follow come from patent US9315475B2 (MERCK SHARP & DOHME CORP., priority 2011, dated 2016).

Each structure is given as a SMILES string.

The target of the assay is T1, wildtype HIV-1 protease (Human immunodeficiency virus type 1 group M subtype B, UniProt P04585).
T1 construct: the wildtype HIV-1 protease (which was expressed in Escherichia coli); made in house; host or cells: Escherichia coli
Description: Assay for inhibition of microbial expressed HIV protease (Pepcleav). In kind it is biochemical. To be noted: wild type HIV-1 protease expressed in E. coli, peptide substrate, pH 5.5; mean of at least two independent experiments; read-out: Pepcleav. The method, then: Assay for Inhibition of Microbial Expressed HIV Protease (“Pepcleav”)
Studies of the inhibition of the wildtype HIV-1 protease (which was expressed in Escherichia coli) were carried out with a peptide substrate [Val-Ser-Gln-Asn-(βnaphthyl)Ala-Pro-Ile-Val (SEQ ID NO:1)]. The inhibitor is first preincubated with the HIV-1 protease (wild type) enzyme in assay buffer (50 mM sodium acetate, pH 5.5, 100 mM NaCl, and 0.1% BSA) for 30 minutes at room temperature. Substrate is added to 400 micromolar in a total volume of 20 microliters containing 20 picomolar HIV-1 protease (final) and the reaction is incubated for 1 hour at 30° C. The reaction is quenched with the addition of formic acid and indinavir to 0.012% and 150 nM final concentrations, respectively. The product formation is determined after separation of product and substrate on a Zorbax Eclipse XDB-C 18 column connected to an API 4000 mass spectrometer (Applied Biosystems) with multiple reaction monitoring (transitions were 644.5/428.9 and 615.4/422.2 (M1/M3) for product and indinavir respectively). The extent of inhibition of the reaction is determined from the peak area of the products.

On to `N[C@H](C(=O)Nc1cccc(F)c1CC[C@@H]1CN[C@H](COC(=O)NCC(F)(F)F)CO1)[C@H](c1ccc(F)cc1)c1ccc(OC(F)(F)F)cc1` [Example 231, (βS)-β-(4-fluorophenyl)-N-(3-fluoro-2-{2-[(2R,5S)-5-({[(2,2,2-trifluoroethyl)carbamoyl]oxy}methyl)morpholin-2-yl]ethyl}phenyl)-O-(trifluoromethyl)-L-tyrosinamide], for which the IC50 worked out at 150 nM.

Consider `COC(=O)N[C@H](C(=O)Nc1ncccc1CC[C@@H]1CN[C@H](COC(=O)NCc2ccc(F)cc2)CO1)C(c1ccccc1)c1ccccc1` [Example 32, N-(3-{2-[(2R,5S)-5-({[(4-fluorobenzyl)carbamoyl]oxy}methyl)morpholin-2-yl]ethyl}pyridin-2-yl)-Nα-(methoxycarbonyl)-β-phenyl-L-phenylalaninamide], for which the IC50 turned out to be 21 nM.

Consider `COC(=O)N[C@H](C(=O)Nc1ccccc1CC[C@@H]1CN[C@H](CNC(=O)Nc2cc[nH]n2)CO1)C(c1ccccc1)c1ccccc1` [Example 43, methyl N-[(1S)-1-benzhydryl-2-oxo-2-[[2-[2-[(2R,5R)-5-[(1H-pyrazol-3-ylcarbamoylamino)methyl]morpholin-2-yl]ethyl]phenyl]amino]ethyl]carbamate], for which the IC50 amounted to 96 nM. For the compound `COC(=O)N[C@H](C(=O)Nc1ccccc1CC[C@@H]1CO[C@H](CCc2ccccc2NC(=O)[C@@H](NC(=O)OC)C(c2ccccc2)c2ccccc2)CN1)C(c1ccccc1)c1ccccc1` [Example 68, dimethyl [(2R,5R)-morpholine-2,5-diylbis {ethane-2,1-diylbenzene-2,1-diylimino[(2S)-1-oxo-3,3-diphenylpropane-1,2-diyl]}]biscarbamate], the IC50 came out at 0.03 nM. The value for `COC(=O)N[C@H](C(=O)Nc1ccccc1CC[C@@H]1CN[C@H](COC(=O)NCCN(C)C)CO1)C(c1ccccc1)c1ccccc1` [Example 28, methyl N-[(1S)-1-benzhydryl-2-[[2-[2-[(2R,5S)-5-(2-dimethylaminoethylcarbamoyloxymethyl)morpholin-2-yl]ethyl]phenyl]amino]-2-oxo-ethyl]carbamate] was 250 nM. In the case of `COC(=O)N[C@H](C(=O)Nc1ccccc1CC[C@@H]1CN[C@H](CNC(=O)Cc2ccccc2)CO1)C(c1ccccc1)c1ccccc1` [Example 53, Nα-(methoxycarbonyl)-β-phenyl-N-(2-{2-[(2R,5R)-5-{[(phenylacetyl)amino]methyl}morpholin-2-yl]ethyl}phenyl)-L-phenylalaninamide] it was 12 nM. The value for `COC(=O)N[C@H](C(=O)Nc1ccccc1CC[C@@H]1CN[C@H](CNC(=O)c2cccnn2)CO1)C(c1ccccc1)c1ccccc1` [Example 54, methyl N-[(1S)-1-benzhydryl-2-oxo-2-[[2-[2-[(2R,5R)-5-[(pyridazine-3-carbonyl-amino)methyl]morpholin-2-yl]ethyl]phenyl]amino]ethyl] carbamate] was 26 nM; that for `O=C(C[C@H](CC1CC1)c1ccccc1)Nc1cccc(F)c1CC[C@@H]1CN[C@H](COC(=O)NCC(F)(F)F)CO1` [Example 163, {(3S,6R)-6-[2-(2-{[(3S)-4-cyclopropyl-3-phenyl-butanoyl]amino}-6-fluoro-phenyl)ethyl]morpholin-3-yl}methyl (2,2,2-trifluoroethyl)carbamate] was 1100 nM; that for `COC(=O)N[C@H](C(=O)Nc1ccccc1CC[C@@H]1CN[C@H](CCc2ccccc2NC(=O)OCc2ccccc2)CO1)C(c1ccccc1)c1ccccc1` [Example 74, methyl N-[(1S)-1-benzhydryl-2-[[2-[2-[(2R,5R)-5-[2-(2-benzyloxycarbonylamino-phenyl)ethyl]morpholin-2-yl]ethyl]phenyl]amino]-2-oxo-ethyl]carbamate] was 10 nM. In the case of `CS(=O)(=O)CC[C@@H]1CO[C@H](COc2c(F)cccc2NC(=O)[C@@H](N)C(c2ccccc2)c2ccccc2)CN1` [Example 232, N-[3-fluoro-2-({(2S,5R)-5-[2-(methylsulfonyl)ethyl]morpholin-2-yl}methoxy)phenyl]-β-phenyl-L-phenylalaninamide], the IC50 worked out at 150 nM.

Turning to `COC(=O)N[C@H](C(=O)Nc1ccccc1CC[C@@H]1CN[C@H](C(=O)Nc2ccccc2)CO1)C(c1ccccc1)c1ccccc1` [Example 7, Nα-(methoxycarbonyl)-β-phenyl-N-(2-{2-[(2R,5S)-5-(phenylcarbamoyl)morpholin-2-yl]ethyl}phenyl)-L-phenylalaninamide], the IC50 came out at 0.8 nM. The value for `CCNC(=O)Nc1ccccc1CC[C@@H]1CO[C@H](CCc2ccccc2NC(=O)[C@@H](NC(=O)OC)C(c2ccccc2)c2ccccc2)CN1` [Example 77] was 15 nM; that for `N[C@H](C(=O)Nc1cccc(C(F)(F)F)c1CC[C@@H]1CN[C@H](COC(=O)NCC(F)(F)F)CO1)C(c1ccccc1)c1ccccc1` [Example 234, β-phenyl-N-[2-{2-[(2R,5S)-5-({[(2,2,2-trifluoroethyl)carbamoyl]oxy}methyl)morpholin-2-yl]ethyl}-3-(trifluoromethyl)phenyl]-L-phenylalaninamide] was 110 nM. The value for `COC(=O)N[C@H](C(=O)Nc1ccccc1CC[C@@H]1CN[C@H](CNS(=O)(=O)C2CC2)CO1)C(c1ccccc1)c1ccccc1` [Example 47, methyl N-[(1S)-1-benzhydryl-2-[[2-[2-[(2R,5R)-5-[(cyclopropyl-sulfonylamino)methyl]morpholin-2-yl]ethyl]phenyl]amino]-2-oxo-ethyl]carbamate] was 84 nM; that for `COC(=O)N[C@H](C(=O)Nc1ccccc1CC[C@@H]1CN[C@H](C(=O)NC2CCOC2)CO1)C(c1ccccc1)c1ccccc1` (stereo partly drawn) [Example 4, Nα-(methoxycarbonyl)-β-phenyl-N-(2-{2-[(2R,5S)-5-(tetrahydrofuran-3-ylcarbamoyl)morpholin-2-yl]ethyl}phenyl)-L-phenylalaninamide] was 25 nM; that for `COC(=O)N[C@H](C(=O)Nc1ccccc1CC[C@@H]1CN[C@H](COC(=O)NCC2CC2)CO1)C(c1ccccc1)c1ccccc1` [Example 22, methyl N-[(1S)-1-benzhydryl-2-[[2-[2-[(2R,5S)-5-(cyclopropylmethylcarbamoyloxymethyl)morpholin-2-yl]ethyl]phenyl]amino]-2-oxo-ethyl]carbamate] was 58 nM. With `COC(=O)N[C@H](C(=O)Nc1ccccc1CC[C@@H]1CN[C@H](CNC(=O)c2c(C)cccc2C)CO1)C(c1ccccc1)c1ccccc1` [Example 57, methyl N-[(1S)-1-benzhydryl-2-[[2-[2-[(2R,5R)-5-[[(2,6-dimethylbenzoyl)amino]methyl]morpholin-2-yl]ethyl]phenyl]amino]-2-oxo-ethyl]carbamate], the IC50 was 50 nM. In the case of `O=C(NCC(F)(F)F)OC[C@@H]1CO[C@H](CCc2c(F)cncc2NC(=O)[C@@H](NC(=O)OCC(F)(F)F)C(c2ccc(F)cc2)c2ccc(F)cc2)CN1` [Example 141, 4-Fluoro-β-(4-fluorophenyl)-N-(5-fluoro-4-{2-[(2R,5S)-5-({[(2,2,2-trifluoroethyl)carbamoyl]oxy}methyl)morpholin-2-yl]ethyl}pyridin-3-yl)-Nα-[(2,2,2-trifluoroethoxy)carbonyl]-L-phenylalaninamide] it was 180 nM; in that of `COC(=O)N[C@H](C(=O)Nc1c(CC[C@@H]2CN[C@H](COC(=O)NCC(F)(F)F)CO2)cc[nH]c1=O)C(c1ccccc1)c1ccccc1` [Example 39, Nα-(methoxycarbonyl)-N-(2-oxo-4-{2-[(2R,5S)-5-({[(2,2,2-trifluoroethyl)carbamoyl]oxy}methyl)morpholin-2-yl]ethyl}-1,2-dihydropyridin-3-yl)-β-phenyl-L-phenylalaninamide], 2.3 nM. In the case of `N[C@H](C(=O)Nc1cccc(F)c1CC[C@@H]1CN[C@H](COC(=O)NCC(F)(F)F)CO1)[C@H](c1ccccc1)c1ccc(Oc2ccccc2)cc1` [Example 227, (βR)-N-(3-fluoro-2-{2-[(2R,5S)-5-( {[(2,2,2-trifluoroethyl)carbamoyl]oxy}methyl)morpholin-2-yl]ethyl}phenyl)-O,β-diphenyl-L-tyrosinamide] it was 340 nM; in that of `COC(=O)N[C@H](C(=O)Nc1ccccc1CC[C@@H]1CN[C@H](COC(=O)NCc2ccc(F)cc2)CO1)C(c1ccccc1)c1ccccc1` [Example 16, methyl N-[(1S)-1-benzhydryl-2-[[2-[2-[(2R,5S)-5-[(4-fluorophenyl)methylcarbamoyloxymethyl]morpholin-2-yl]ethyl]phenyl]amino]-2-oxo-ethyl]carbamate], 5.9 nM; in that of `COC(=O)N[C@H](C(=O)Nc1ccccc1CC[C@@H]1CN[C@H](COC(=O)N(C)C)CO1)C(c1ccccc1)c1ccccc1` [Example 26, methyl N-[(1S)-1-benzhydryl-2-[[2-[2-[(2R,5S)-5-(dimethylcarbamoyloxymethyl)morpholin-2-yl]ethyl]phenyl]amino]-2-oxo-ethyl]carbamate], 210 nM.

Regarding `COC(=O)N[C@H](C(=O)Nc1ccccc1CC[C@@H]1CN[C@H](COc2ccccc2)CO1)C(c1ccccc1)c1ccccc1` [Example 63, Nα-(methoxycarbonyl)-N-(2-{2-[(2R,5S)-5-(phenoxymethyl)morpholin-2-yl]ethyl}phenyl)-β-phenyl-L-phenylalaninamide], the IC50 stood at 49 nM.
